Measurements: patent publication US8466155B2, “Pyrimidines” (Boehringer Ingelheim International GmbH, priority 2009, dated 2013)

target: T1, PTK2 (Homo sapiens, UniProt Q05397); assay: PTK2 enzyme test, Assay 1 (DELFIA, PT60 antibody); type: biochemical; conditions: 1 h pre-incubation, 1 h kinase reaction, values without *
T1 construct: purchased Invitrogen PV3832
Description: This test uses active PTK2 enzyme (Invitrogen Code PV3832) and poly-Glu-Tyr (4:1, Sigma P-0275) as the kinase substrate. The kinase activity is detected through the phosphorylation of the substrate in a DELFIA™ assay. The phosphorylated substrate is detected with the europium-labelled phosphotyrosine antibody PT60 (Perkin Elmer, No.: AD00400).
In order to determine concentration-activity curves with PTK2-inhibitors the compounds are serially diluted in 10% DMSO/H20 and 10 μL of each dilution are placed in each well of a 96-well microtitre plate (clear plate with a U-shaped base, Greiner No. 650101) (the inhibitors are tested in duplicates) and mixed with 10 μL/well of PTK2 kinase (0.01 μg/well). PTK2 kinase has been correspondingly diluted beforehand with kinase dilution buffer (20 mM TRIS/HCl pH 7.5, 0.1 mM EDTA, 0.1 mM EGTA, 0.286 mM sodium orthovanadate, 10% glycerol with the addition of freshly prepared BSA (fraction V, 1 mg/mL) and DTT (1 mM)). The test compound and the PTK2 kinase are pre-incubated for 1 h at RT and shaken at 500 revolutions per min. The reaction is started by the addition of 10 μL/well poly (Glu,Tyr) substrate (25 μg/well poly (Glu, Tyr), 0.05 μg/well biotinylated poly (Glu,Tyr) dissolved in 250 mM TRIS/HCl pH 7.5, 9 mM DTT)—the final concentration of DMSO is 2%. Then 20 μL of ATP Mix (30 mM TRIS/HCl pH 7.5, 0.02% Brij, 0.2 mM sodium orthovanadate, 10 mM magnesium acetate, 0.1 mM EGTA, 1× phosphatase inhibitor cocktail 1 (Sigma, No.: P2850), 50 μM ATP (Sigma, No.: A3377; 15 mM stock solution)) are added. After 1 h of kinase reaction (the plates are shaken at 500 rpm), the reaction is stopped by the addition of 12 μL/well 100 mM EDTA, pH 8.0 and shaken for a further 5 min at RT (500 rpm). 55 μL of the reaction mixture are transferred into a streptavidin plate (Strepta Well High Bind (transparent, 96-well) made by Roche, No.: 11989685001) and incubated for 1 h at RT (shaking at 500 rpm). Then the microtitre plate is washed three times with 200 μL/well D-PBS (Invitrogen, No. 14190). 100 μL of a solution containing DELFIA Eu-N1 Anti-Phosphotyrosine PT60 antibody (Perkin Elmer, No.: AD0040, diluted 1:2000 in DELFIA test buffer (Perkin Elmer, No.: 1244-111)) is then added and the mixture is incubated for 1 h at RT (shaking at 500 rpm). Then the plate is washed three times with 200 μL/well DELFIA washing buffer (Perkin Elmer, No.: 1244-114), 200 μL/well strengthening solution (Perkin Elmer, No.: 1244-105) are added and the mixture is incubated for 10 min at RT (shaking at 300 rpm).
The time-delayed europium fluorescence is then measured in a microtitre plate reader (VICTOR^3, Perkin Elmer). […] Wells that contain test buffer instead of enzyme are used as a control of the background kinase activity.
The IC50 values are determined from analyses of the concentration activity by iterative calculation with the aid of a sigmoid curve analysis algorithm (FIFTY, based on GraphPAD Prism Version 3.03) with a variable Hill coefficient.

T1 sequence (Q05397 whole entry): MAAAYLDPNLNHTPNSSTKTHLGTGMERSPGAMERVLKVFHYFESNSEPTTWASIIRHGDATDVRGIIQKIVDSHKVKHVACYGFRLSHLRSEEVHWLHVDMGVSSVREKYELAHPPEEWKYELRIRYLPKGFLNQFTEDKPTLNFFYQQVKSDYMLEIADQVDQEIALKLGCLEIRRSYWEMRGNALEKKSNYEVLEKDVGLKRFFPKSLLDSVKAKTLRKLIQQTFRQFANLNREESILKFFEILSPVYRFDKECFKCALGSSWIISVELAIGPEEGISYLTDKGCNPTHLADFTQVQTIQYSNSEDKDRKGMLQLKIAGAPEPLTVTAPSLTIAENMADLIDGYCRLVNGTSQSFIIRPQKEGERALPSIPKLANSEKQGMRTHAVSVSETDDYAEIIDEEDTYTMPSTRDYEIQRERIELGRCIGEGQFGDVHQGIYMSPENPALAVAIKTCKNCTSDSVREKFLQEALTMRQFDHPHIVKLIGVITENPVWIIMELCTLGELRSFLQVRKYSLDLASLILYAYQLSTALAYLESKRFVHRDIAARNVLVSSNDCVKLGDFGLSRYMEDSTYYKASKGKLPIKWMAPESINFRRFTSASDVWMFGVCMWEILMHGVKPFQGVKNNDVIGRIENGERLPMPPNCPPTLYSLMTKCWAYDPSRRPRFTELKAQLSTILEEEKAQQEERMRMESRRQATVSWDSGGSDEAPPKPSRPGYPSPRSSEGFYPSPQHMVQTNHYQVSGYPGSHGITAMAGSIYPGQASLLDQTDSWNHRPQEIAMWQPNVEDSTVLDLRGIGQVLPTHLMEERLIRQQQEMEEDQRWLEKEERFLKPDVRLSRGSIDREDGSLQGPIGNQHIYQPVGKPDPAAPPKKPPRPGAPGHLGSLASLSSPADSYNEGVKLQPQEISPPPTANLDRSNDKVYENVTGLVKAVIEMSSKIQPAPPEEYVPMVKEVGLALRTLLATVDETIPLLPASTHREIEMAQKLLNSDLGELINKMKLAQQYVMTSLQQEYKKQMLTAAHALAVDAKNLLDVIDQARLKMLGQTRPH

Structure (SMILES) | IC50
COc1cc(C(=O)NC2CCN(C)CC2)c(F)cc1Nc1ncc(C(F)(F)F)c(O[C@@H]2Cc3ccccc3[C@H]2NS(C)(=O)=O)n1 [Example 24, 2-fluoro-4-[4-((1R,2R)-1-methanesulphonylamino-indan-2-yloxy)-5-trifluoromethyl-pyrimidin-2-ylamino]-5-methoxy-N-(1-methyl-piperidin-4-yl)-benzamide] | 1 nM
COc1cc(C(=O)NCCN2CCN(C)CC2)c(F)cc1Nc1ncc(C(F)(F)F)c(O[C@@H]2Cc3ccccc3[C@H]2N(C)S(C)(=O)=O)n1 [Example 5] | 4 nM
COc1cc(C(=O)NN2CCN(C)CC2)c(F)cc1Nc1ncc(Cl)c(O[C@@H]2Cc3ccccc3[C@H]2N(C)S(C)(=O)=O)n1 [Example 59] | 6 nM
COc1cc(C(=O)NCCN(C)C)c(F)cc1Nc1ncc(C(F)(F)F)c(O[C@@H]2Cc3ccccc3[C@H]2N(C)S(C)(=O)=O)n1 [Example 2] | 5 nM
COc1cc(C(=O)NC2CCN(C)CC2)c(F)cc1Nc1ncc(C(F)(F)F)c(O[C@@H]2CCC[C@H]2NS(C)(=O)=O)n1 [Example 28, 2-fluoro-4-[4-((1R,2R)-2-methanesulphonylamino-cyclopentyloxy)-5-trifluoromethyl-pyrimidin-2-ylamino]-5-methoxy-N-(1-methyl-piperidin-4-yl)-benzamide] | 2 nM
COc1cc(C(=O)NC2CCN(C)CC2)c(F)cc1Nc1ncc(C(F)(F)F)c(O[C@@H]2CCC[C@H]2NS(=O)(=O)C(F)(F)F)n1 [Example 107] | 103 nM
COc1cc(C(=O)NN2CCN(C)CC2)c(F)cc1Nc1ncc(Cl)c(O[C@@H]2CCC[C@H]2N(C)S(C)(=O)=O)n1 [Example 88, 4-{5-chloro-4-[(1R,2R)-2-(methanesulphonyl-methyl-amino)-cyclopentyloxy]-pyrimidin-2-ylamino}-2-fluoro-5-methoxy-N-(4-methyl-piperazin-1-yl)-benzamide] | 0.37 nM
COc1cc(C(=O)NN2CCN(C)CC2)ccc1Nc1ncc(C(F)(F)F)c(O[C@@H]2CCCC[C@H]2N(C)S(C)(=O)=O)n1 [Example 77, 4-{4-[(1R,2R)-2-(methanesulphonyl-methyl-amino)-cyclohexyloxy]-5-trifluoromethyl-pyrimidin-2-ylamino}-3-methoxy-N-(4-methyl-piperazin-1-yl)-benzamide] | 0.3 nM
COc1cc(C(=O)NN2CCN(C)CC2)ccc1Nc1ncc(C(F)(F)F)c(O[C@@H]2CCC[C@H]2NS(C)(=O)=O)n1 [Example 73] | 2 nM
COc1cc(C(=O)NC2CCN(C)CC2)ccc1Nc1ncc(C(F)(F)F)c(O[C@@H]2Cc3ccccc3[C@H]2N(C)S(C)(=O)=O)n1 [Example 27, 4-{4-[(1R,2R)-1-(methanesulphonyl-methyl-amino)-indan-2-yloxy]-5-trifluoromethyl-pyrimidin-2-ylamino}-3-methoxy-N-(1-methyl-piperidin-4-yl)-benzamide] | 1 nM
COc1cc(C(=O)NN2CCN(C)CC2)c(Cl)cc1Nc1ncc(Cl)c(O[C@@H]2Cc3ccccc3[C@H]2N(C)S(C)(=O)=O)n1 [Example 63] | 3 nM
COc1cc(C(=O)N[C@H]2CCN(C)C[C@@H]2OC)ccc1Nc1ncc(C(F)(F)F)c(O[C@@H]2Cc3ccccc3[C@H]2N(C)S(C)(=O)=O)n1 [Example 29, 4-{4-[(1R,2R)-1-(methanesulphonyl-methyl-amino)-indan-2-yloxy]-5-trifluoromethyl-pyrimidin-2-ylamino}-3-methoxy-N-((3S,4S)-3-methoxy-1-methyl-piperidin-4-yl)-benzamide] | 3 nM
COc1ccc(C(=O)NCCCN(C)C)cc1Nc1ncc(C(F)(F)F)c(O[C@@H]2Cc3ccccc3[C@H]2N(C)S(C)(=O)=O)n1 [Example 82] | 0.38 nM
COc1cc(C(=O)NC[C@H](O)CO)c(F)cc1Nc1ncc(Cl)c(O[C@@H]2Cc3ccccc3[C@H]2N(C)S(C)(=O)=O)n1 [Example 56] | 9 nM
COc1cc(C(=O)NCCN(C)C)c(Cl)cc1Nc1ncc(C(F)(F)F)c(O[C@@H]2CCCC[C@H]2NS(C)(=O)=O)n1 [Example 108] | 0.44 nM
CNC(=O)c1cc(OC)c(Nc2ncc(C(F)(F)F)c(O[C@@H]3Cc4ccccc4[C@H]3N(C)S(C)(=O)=O)n2)cc1F [Example 6] | 17 nM

Structure (SMILES) | IC50
COc1cc(C(=O)NCC2CC2)ccc1Nc1ncc(C(F)(F)F)c(O[C@@H]2Cc3ccccc3[C@H]2N(C)S(C)(=O)=O)n1 [Example 21] | 12 nM
COc1cc(C(=O)NC2CCN(C)CC2)c(F)cc1Nc1ncc(C(F)(F)F)c(O[C@@H]2CCC[C@H]2N(C)S(C)(=O)=O)n1 [Example 103, 2-fluoro-4-{4-[(1R,2R)-2-(methanesulphonyl-methyl-amino)-cyclopentyloxy]-5-trifluoromethyl-pyrimidin-2-ylamino}-5-methoxy-N-(1-methyl-piperidin-4-yl)-benzamide] | 0.28 nM
COc1cc(C(=O)NCC2CC2)c(F)cc1Nc1ncc(Cl)c(O[C@@H]2Cc3ccccc3[C@H]2N(C)S(C)(=O)=O)n1 [Example 66] | 16 nM
COc1cc(C(=O)NCCN(C)C)ccc1Nc1ncc(C(F)(F)F)c(O[C@@H]2Cc3ccccc3[C@H]2NS(C)(=O)=O)n1 [Example 95] | 0.56 nM
COc1cc(C(=O)NC2CCN(C)CC2)c(F)cc1Nc1ncc(C(F)(F)F)c(O[C@@H]2Cc3ccccc3[C@H]2N(C)S(C)(=O)=O)n1 [Example 25, 2-fluoro-4-{4-[(1R,2R)-1-(methanesulphonyl-methyl-amino)-indan-2-yloxy]-5-trifluoromethyl-pyrimidin-2-ylamino}-5-methoxy-N-(1-methyl-piperidin-4-yl)-benzamide] | 2 nM
COc1cc(C(=O)NCCN(C)C)c(F)cc1Nc1ncc(C(F)(F)F)c(O[C@@H]2Cc3ccccc3[C@H]2NS(C)(=O)=O)n1 [Example 96] | 0.54 nM
COc1cc(C(=O)NCCN(C)C)c(Cl)cc1Nc1ncc(Cl)c(O[C@@H]2Cc3ccccc3[C@H]2N(C)S(C)(=O)=O)n1 [Example 40] | 3 nM
COc1cc(C(=O)NC[C@H](O)CO)c(F)cc1Nc1ncc(C(F)(F)F)c(O[C@@H]2Cc3ccccc3[C@H]2N(C)S(C)(=O)=O)n1 [Example 65] | 10 nM
COc1cc(NC(C)=O)ccc1Nc1ncc(C(F)(F)F)c(O[C@@H]2Cc3ccccc3[C@H]2N(C)S(C)(=O)=O)n1 [Example 94] | 5 nM
COc1cc(C(=O)N[C@H]2CC[C@H](N3CCN(CC4CC4)CC3)CC2)c(F)cc1Nc1ncc(C(F)(F)F)c(O[C@@H]2Cc3ccccc3[C@H]2N(C)S(C)(=O)=O)n1 [Example 7] | 8 nM
COc1cc(C(=O)NN2CCN(C)CC2)ccc1Nc1ncc(C(F)(F)F)c(O[C@@H]2CCC[C@H]2N(C)S(C)(=O)=O)n1 [Example 89] | 0.33 nM
COc1cc(C(=O)NC[C@H](O)CO)ccc1Nc1ncc(C(F)(F)F)c(O[C@@H]2Cc3ccccc3[C@H]2N(C)S(C)(=O)=O)n1 [Example 49] | 5 nM
COc1cc(C(=O)NCCn2ccnc2C)c(F)cc1Nc1ncc(Cl)c(O[C@@H]2Cc3ccccc3[C@H]2N(C)S(C)(=O)=O)n1 [Example 52] | 6 nM
COc1cc(C(=O)N[C@H]2CC[C@H](O)CC2)c(F)cc1Nc1ncc(Cl)c(O[C@@H]2Cc3ccccc3[C@H]2N(C)S(C)(=O)=O)n1 [Example 55] | 6 nM
COc1cc(C(=O)NCCN2CCN(C)CC2)c(F)cc1Nc1ncc(Cl)c(O[C@@H]2Cc3ccccc3[C@H]2N(C)S(C)(=O)=O)n1 [Example 57] | 2 nM
COc1cc(C(=O)NCCCN(C)C)c(F)cc1Nc1ncc(C(F)(F)F)c(O[C@@H]2Cc3ccccc3[C@H]2N(C)S(C)(=O)=O)n1 [Example 8] | 4 nM
